Assay results as given in patent US11839651B2, “Immunogenic compositions and uses thereof” (INSTITUTE FOR RESEARCH IN BIO-MEDICINE, priority 2015, dated 2023).

System: Tfh cells (via P2X7)
Test: Epithelial permeability to ATP: Tfh cell recovery in Peyer's patches after daily gavage
Format: in vivo
Conditions: wild type mice, two weeks after treatment
Description: In order to assess epithelial permeability to ATP in the small intestine, mice were gavaged daily with ATPγS (a non-hydrolysable analogue of ATP). As Tfh cells are sensitive to extracellular ATP via P2X7 the inventors analysed Tfh cell recovery in Peyer's patches two weeks after treatment.

`Nc1ncnc2c1ncn2[C@@H]1O[C@H](COP(=O)(O)OP(=O)(O)OP(O)(O)=S)[C@@H](O)[C@H]1O` [ATPγS] was tested, and the “Tfh cells in Peyer's patches” value was “significant reduction”.
